The text below walks through data of patent US12595226B2, “Carbonate containing lipid compounds and compositions for intracellular delivery of therapeutic agents” (ModernaTX, Inc., priority 2019, dated 2026).

Bounds are passed on as bounds.

This data set in a line: Residual lipid levels in the liver of mice after LNP administration. The note with it: calculation assumes a 25 g mouse with a 1.5 g liver, >95% equals very slowly metabolism of the lipid. The class given is in vivo, CD-1 mice.
For `CCCCCCCCCOC(=O)OCCCCCCN(CCO)CCCCCCCC(=O)OC(CCCCCCCC)CCCCCCCC` [Compound 6, Heptadecan-9-yl 8-((2-hydroxyethyl)(6-(((nonyloxy)carbonyl)oxy)hexyl)amino)octanoate], the “Approx. Percent Total Dose of Parent Lipid Remaining at 24 h” value is 2%. Then `CCCCCCCCC(CCCCCCCC)OC(=O)CCCCCCCN(CCO)CCCCCCOC(=O)OCCC(CCCCC)CCCCC` [Compound 64, Heptadecan-9-yl 8-((2-hydroxyethyl)(6-((((3-pentyloctyl)oxy)carbonyl)oxy)hexyl)amino)octanoate], with 51%. `CCCCCCCCC(CCCCCCCC)OC(=O)CCCCCCCN(CCCCCCOC(=O)OCCC(CCCCCC)CCCCCC)CCCNc1c(NC)c(=O)c1=O` [Compound 65, Heptadecan-9-yl 8-((6-((((3-hexylnonyl)oxy)carbonyl)oxy)hexyl)(3-((2-(methylamino)-3,4-dioxocyclobut-1-en-1-yl)amino)propyl)amino)octanoate]: the “Approx. Percent Total Dose of Parent Lipid Remaining at 24 h” value is given as above 95%.

Consider `CCCCCCCCC(CCCCCCCC)OC(=O)CCCCCCCN(CCO)CCCCCCOC(=O)OCCC(CCCCCC)CCCCCC` [Compound 66, Heptadecan-9-yl 8-((6-((((3-hexylnonyl)oxy)carbonyl)oxy)hexyl)(2-hydroxyethyl)amino)octanoate], for which the “Approx. Percent Total Dose of Parent Lipid Remaining at 24 h” value is 48%. Then `CCCCCCCCC(CCCCCCCC)OC(=O)CCCCCCCN(CCCCCCOC(=O)OCCC(CCCCC)CCCCC)CCCNc1c(NC)c(=O)c1=O` [Compound 67, Heptadecan-9-yl 8-((3-((2-(methylamino)-3,4-dioxocyclobut-1-en-1-yl)amino)propyl)(6-((((3-pentyloctyl)oxy)carbonyl)oxy)hexyl)amino)octanoate], with above 95%.
